# In ChEMBL document CHEMBL1136569, “Quinolone-based IMPDH inhibitors: introduction of basic residues on ring D and SAR of the corresponding mono, di and benzofused analogues” (Bioorg Med Chem Lett, 2003):
# How the values were obtained:
# [1] = test system: CCRF-CEM; experiment: Inhibitory activity against proliferation of CEM cell line; type: functional, cell-based, Homo sapiens
# [2] = biological target: Inosine-5'-monophosphate dehydrogenase 2 (Homo sapiens, UniProt P12268); experiment: Inhibitory activity against inosine monophosphate dehydrogenase IMPDH II
# [3] = Inhibitory activity against proliferation of peripheral blood mononuclear cells; type: functional, Homo sapiens
Structure (SMILES),IC50 ([1]; ccrf-cem) [nM],IC50 [2] [nM],"IC50 ([1]; Homo sapiens, CCRF-CEM) [nM]",IC50 [3] [nM],IC50 ([3]; Homo sapiens) [nM]
COc1c(C)c2c(c(O)c1C/C=C(\C)CCC(=O)O)C(=O)OC2 [MYCOPHENOLIC ACID],–,–,–,–,600
COc1cc2nc(-c3ccc(N4CCOCC4)cc3)cc(O)c2cc1-c1cnco1,–,21,1100,–,–
COc1cc2nc(-c3ccc4c(c3)C(N(C)C(=O)Cn3ccnc3)CC4)cc(O)c2cc1-c1cnco1 (stereo not given),–,68,> 10000,–,–
COc1cc2nc(-c3ccc(N4CCN(C)CC4)cc3)cc(O)c2cc1-c1cnco1,–,53,2200,–,–
COc1cc2nc(-c3cccc(N4CCCC4)c3)cc(O)c2cc1-c1cnco1,–,25,2700,–,–
COc1cc2nc(-c3ccc4c(c3)C(N(C)C(C)=O)CC4)cc(O)c2cc1-c1cnco1 (stereo not given),–,18,1100,–,–
COc1cc(NC(=O)Nc2cccc(CNC(=O)O[C@H]3CCOC3)c2)ccc1-c1cnco1 [MERIMEPODIB],–,–,–,–,170
COc1cc2nc(-c3ccc4c(c3)C(N3CCCC3)CCO4)cc(O)c2cc1-c1cnco1 (stereo not given),–,33,1400,–,–
COc1cc2nc(-c3ccc4c(c3)C(O)CC4)cc(O)c2cc1-c1cnco1 (stereo not given),–,28,3100,–,–
COc1cc2nc(-c3ccc(C)c(N4CCN(C)CC4)c3)cc(O)c2cc1-c1cnco1,–,26,1100,–,–
COc1cc2nc(-c3ccc4c(c3)C(O)CCC4)cc(O)c2cc1-c1cnco1 (stereo not given),–,83,3400,–,–
COc1cc2nc(-c3ccc(OC)c(N4CCN(C)CC4)c3)cc(O)c2cc1-c1cnco1,–,140,10000,–,–
COc1cc2nc(-c3ccc4c(c3)CCC4N(C)C)cc(O)c2cc1-c1cnco1 (stereo not given),–,55,4100,–,–
COc1cc2nc(-c3ccc4c(c3)C([N+](C)(C)C)CC4)cc(O)c2cc1-c1cnco1 (stereo not given),–,30,> 10000,–,–
COc1cc2nc(-c3ccc4c(c3)C(N(C)C)CCO4)cc(O)c2cc1-c1cnco1 (stereo not given),–,21,720,–,–
COc1cc2nc(-c3cccc(N4CCOCC4)c3)cc(O)c2cc1-c1cnco1,–,< 50,–,–,–
COc1cc2nc(-c3ccc4c(c3)C(N3CCOCC3)CC4)cc(O)c2cc1-c1cnco1 (stereo not given),–,20,1100,–,–

# Second part, led by results:
IC50 ([1]; ccrf-cem) [nM],IC50 [2] [nM],"IC50 ([1]; Homo sapiens, CCRF-CEM) [nM]",Structure (SMILES),IC50 [3] [nM],IC50 ([3]; Homo sapiens) [nM]
270,< 5,–,"COc1cc2nc(-c3ccc4c(c3)C(N(C)C)CC4)cc(O)c2cc1-c1cnco1 (single isomer, unassigned; Enantiomer A)",120,–
–,13,670,COc1cc2nc(-c3ccc4c(c3)C(N3CCCC3)CC4)cc(O)c2cc1-c1cnco1 (stereo not given),–,–
–,12,1600,CNC1CCc2ccc(-c3cc(O)c4cc(-c5cnco5)c(OC)cc4n3)cc21 (stereo not given),–,–
–,16,1700,COc1cc2nc(-c3cccc(N4CCN(C)CC4)c3)cc(O)c2cc1-c1cnco1,–,–
550,< 5,–,"COc1cc2nc(-c3ccc4c(c3)C(N(C)C)CC4)cc(O)c2cc1-c1cnco1 (single isomer, unassigned; enantiomer B)",320,–
–,18,1800,COc1cc2nc(-c3ccc4c(c3)C(N(C)C(=O)CN3CCOCC3)CC4)cc(O)c2cc1-c1cnco1 (stereo not given),–,–
–,14,1300,COc1cc2nc(-c3ccc4c(c3)N(C(C)=O)CCO4)cc(O)c2cc1-c1cnco1,–,–
290,6,–,COc1cc2nc(-c3ccc4c(c3)C(N(C)C)CC4)cc(O)c2cc1-c1cnco1 (stereo in doubt; 27),–,–
–,< 5,710,COc1cc2nc(-c3ccc(C)c(OCC4CCCO4)c3)cc(O)c2cc1-c1cnco1 (stereo not given),–,–
–,15,780,COc1cc2nc(-c3ccc(C)c(N4CCCC4)c3)cc(O)c2cc1-c1cnco1,–,–
–,6,800,COc1cc2nc(-c3ccc4c(c3)C(N3CCC3)CC4)cc(O)c2cc1-c1cnco1 (stereo not given),–,–
–,5,650,COc1cc2nc(-c3ccc(C)c(N4CCOCC4)c3)cc(O)c2cc1-c1cnco1,–,–
–,< 5,600,COc1cc2nc(-c3ccc(C)c(OCCN4CCOCC4)c3)cc(O)c2cc1-c1cnco1,–,–
–,12,1100,COCC(=O)N(C)C1CCc2ccc(-c3cc(O)c4cc(-c5cnco5)c(OC)cc4n3)cc21 (stereo not given),–,–
–,14,1100,COc1cc2nc(-c3ccc4c(c3)CN(C)C4)cc(O)c2cc1-c1cnco1,–,–
–,< 10,520,COc1cc2nc(-c3ccc4c(c3)C(=O)CCC4)cc(O)c2cc1-c1cnco1,–,–
–,15,700,COc1cc2nc(-c3ccc4c(c3)[C@@H](N(C)C)[C@H](OC)C4)cc(O)c2cc1-c1cnco1,–,–
–,15,370,COc1cc2nc(-c3ccc4c(c3)C(N(C)C)CCC4)cc(O)c2cc1-c1cnco1 (stereo not given),–,–
–,11,–,COc1cc2nc(-c3ccc4c(c3)C(OC(=O)N(C)C)CC4)cc(O)c2cc1-c1cnco1 (stereo not given),–,–
